## O=c1[nH]cc(F)c(=O)[nH]1
In DMF, 283.15 K
  solubility (mole fraction): 0.00344
In DMF, 288.15 K
  solubility (mole fraction): 0.00452
In DMF, 293.15 K
  solubility (mole fraction): 0.00556
In DMF, 298.15 K
  solubility (mole fraction): 0.00658
In DMF, 303.15 K
  solubility (mole fraction): 0.00779
In DMF, 308.15 K
  solubility (mole fraction): 0.00923
In DMF, 313.15 K
  solubility (mole fraction): 0.0109
In DMF, 318.15 K
  solubility (mole fraction): 0.0127
In DMF, 323.15 K
  solubility (mole fraction): 0.0143
In acetic acid, 283.15 K
  solubility (mole fraction): 0.000413
In acetic acid, 288.15 K
  solubility (mole fraction): 0.000496
In acetic acid, 293.15 K
  solubility (mole fraction): 0.000592
In acetic acid, 298.15 K
  solubility (mole fraction): 0.000722
In acetic acid, 303.15 K
  solubility (mole fraction): 0.000891
In acetic acid, 308.15 K
  solubility (mole fraction): 0.0011
In acetic acid, 313.15 K
  solubility (mole fraction): 0.00134
In acetic acid, 318.15 K
  solubility (mole fraction): 0.0017
In acetic acid, 323.15 K
  solubility (mole fraction): 0.0022
In ethanol, 283.15 K
  solubility (mole fraction): 0.00202
In ethanol, 288.15 K
  solubility (mole fraction): 0.00224
In ethanol, 293.15 K
  solubility (mole fraction): 0.00245
In ethanol, 298.15 K
  solubility (mole fraction): 0.00268
In ethanol, 303.15 K
  solubility (mole fraction): 0.00301
In ethanol, 308.15 K
  solubility (mole fraction): 0.00331
In ethanol, 313.15 K
  solubility (mole fraction): 0.00369
In ethanol, 318.15 K
  solubility (mole fraction): 0.00402
In ethanol, 323.15 K
  solubility (mole fraction): 0.00451
In formic acid, 283.15 K
  solubility (mole fraction): 0.000481
In formic acid, 288.15 K
  solubility (mole fraction): 0.000568
In formic acid, 293.15 K
  solubility (mole fraction): 0.000675
In formic acid, 298.15 K
  solubility (mole fraction): 0.000827
In formic acid, 303.15 K
  solubility (mole fraction): 0.000988
In formic acid, 308.15 K
  solubility (mole fraction): 0.00121
In formic acid, 313.15 K
  solubility (mole fraction): 0.00147
In formic acid, 318.15 K
  solubility (mole fraction): 0.00186
In formic acid, 323.15 K
  solubility (mole fraction): 0.00238
In isobutanol, 283.15 K
  solubility (mole fraction): 0.000629
In isobutanol, 288.15 K
  solubility (mole fraction): 0.000731
In isobutanol, 293.15 K
  solubility (mole fraction): 0.000854
In isobutanol, 298.15 K
  solubility (mole fraction): 0.00101
In isobutanol, 303.15 K
  solubility (mole fraction): 0.0012
In isobutanol, 308.15 K
  solubility (mole fraction): 0.00143
In isobutanol, 313.15 K
  solubility (mole fraction): 0.00173
In isobutanol, 318.15 K
  solubility (mole fraction): 0.00213
In isobutanol, 323.15 K
  solubility (mole fraction): 0.00261
In isopentanol, 283.15 K
  solubility (mole fraction): 0.000714
In isopentanol, 288.15 K
  solubility (mole fraction): 0.000823
In isopentanol, 293.15 K
  solubility (mole fraction): 0.00095
In isopentanol, 298.15 K
  solubility (mole fraction): 0.00112
In isopentanol, 303.15 K
  solubility (mole fraction): 0.00132
In isopentanol, 308.15 K
  solubility (mole fraction): 0.00156
In isopentanol, 313.15 K
  solubility (mole fraction): 0.00188
In isopentanol, 318.15 K
  solubility (mole fraction): 0.00232
In isopentanol, 323.15 K
  solubility (mole fraction): 0.00276
In isopropanol, 283.15 K
  solubility (mole fraction): 0.000549
In isopropanol, 288.15 K
  solubility (mole fraction): 0.000647
In isopropanol, 293.15 K
  solubility (mole fraction): 0.000762
In isopropanol, 298.15 K
  solubility (mole fraction): 0.000908
In isopropanol, 303.15 K
  solubility (mole fraction): 0.00107
In isopropanol, 308.15 K
  solubility (mole fraction): 0.00132
In isopropanol, 313.15 K
  solubility (mole fraction): 0.00161
In isopropanol, 318.15 K
  solubility (mole fraction): 0.00195
In isopropanol, 323.15 K
  solubility (mole fraction): 0.00247
In methanol, 283.15 K
  solubility (mole fraction): 0.00313
In methanol, 288.15 K
  solubility (mole fraction): 0.00357
In methanol, 293.15 K
  solubility (mole fraction): 0.0041
In methanol, 298.15 K
  solubility (mole fraction): 0.00464
In methanol, 303.15 K
  solubility (mole fraction): 0.00521
In methanol, 308.15 K
  solubility (mole fraction): 0.0058
In methanol, 313.15 K
  solubility (mole fraction): 0.00643
In methanol, 318.15 K
  solubility (mole fraction): 0.00713
In methanol, 323.15 K
  solubility (mole fraction): 0.00787
In n-butanol, 283.15 K
  solubility (mole fraction): 0.00101
In n-butanol, 288.15 K
  solubility (mole fraction): 0.00113
In n-butanol, 293.15 K
  solubility (mole fraction): 0.00128
In n-butanol, 298.15 K
  solubility (mole fraction): 0.00147
In n-butanol, 303.15 K
  solubility (mole fraction): 0.00168
In n-butanol, 308.15 K
  solubility (mole fraction): 0.00197
In n-butanol, 313.15 K
  solubility (mole fraction): 0.00232
In n-butanol, 318.15 K
  solubility (mole fraction): 0.00269
In n-butanol, 323.15 K
  solubility (mole fraction): 0.0031
In n-butyric acid, 283.15 K
  solubility (mole fraction): 0.000247
In n-butyric acid, 288.15 K
  solubility (mole fraction): 0.000296
In n-butyric acid, 293.15 K
  solubility (mole fraction): 0.000364
In n-butyric acid, 298.15 K
  solubility (mole fraction): 0.000444
In n-butyric acid, 303.15 K
  solubility (mole fraction): 0.000557
In n-butyric acid, 308.15 K
  solubility (mole fraction): 0.000696
In n-butyric acid, 313.15 K
  solubility (mole fraction): 0.000877
In n-butyric acid, 318.15 K
  solubility (mole fraction): 0.00111
In n-butyric acid, 323.15 K
  solubility (mole fraction): 0.00143
In n-pentanol, 283.15 K
  solubility (mole fraction): 0.000791
In n-pentanol, 288.15 K
  solubility (mole fraction): 0.000902
In n-pentanol, 293.15 K
  solubility (mole fraction): 0.00104
In n-pentanol, 298.15 K
  solubility (mole fraction): 0.0012
In n-pentanol, 303.15 K
  solubility (mole fraction): 0.0014
In n-pentanol, 308.15 K
  solubility (mole fraction): 0.00166
In n-pentanol, 313.15 K
  solubility (mole fraction): 0.00199
In n-pentanol, 318.15 K
  solubility (mole fraction): 0.00226
In n-pentanol, 323.15 K
  solubility (mole fraction): 0.00286
In n-propanol, 283.15 K
  solubility (mole fraction): 0.00184
In n-propanol, 288.15 K
  solubility (mole fraction): 0.00213
In n-propanol, 293.15 K
  solubility (mole fraction): 0.00242
In n-propanol, 298.15 K
  solubility (mole fraction): 0.00272
In n-propanol, 303.15 K
  solubility (mole fraction): 0.00303
In n-propanol, 308.15 K
  solubility (mole fraction): 0.00338
In n-propanol, 313.15 K
  solubility (mole fraction): 0.00376
In n-propanol, 318.15 K
  solubility (mole fraction): 0.00415
In n-propanol, 323.15 K
  solubility (mole fraction): 0.00465
In propionic acid, 283.15 K
  solubility (mole fraction): 0.000374
In propionic acid, 288.15 K
  solubility (mole fraction): 0.000454
In propionic acid, 293.15 K
  solubility (mole fraction): 0.000536
In propionic acid, 298.15 K
  solubility (mole fraction): 0.000668
In propionic acid, 303.15 K
  solubility (mole fraction): 0.000816
In propionic acid, 308.15 K
  solubility (mole fraction): 0.00101
In propionic acid, 313.15 K
  solubility (mole fraction): 0.0013
In propionic acid, 318.15 K
  solubility (mole fraction): 0.00166
In propionic acid, 323.15 K
  solubility (mole fraction): 0.00214
In water, 283.15 K
  solubility (mole fraction): 0.0011
In water, 288.15 K
  solubility (mole fraction): 0.00131
In water, 293.15 K
  solubility (mole fraction): 0.00153
In water, 298.15 K
  solubility (mole fraction): 0.00175
In water, 303.15 K
  solubility (mole fraction): 0.00198
In water, 308.15 K
  solubility (mole fraction): 0.00229
In water, 313.15 K
  solubility (mole fraction): 0.00256
In water, 318.15 K
  solubility (mole fraction): 0.00298
In water, 323.15 K
  solubility (mole fraction): 0.00345

— BigSolDB 2.1
